Test results as given in patent US20240109848A1, “PROCESS FOR THE PREPARATION OF IMIDAZOBENZODIAZEPINES” (ODH IP Corp., priority 2022, published 2024).

Key:
[1] = for weight remaining of starting sample (TGA): heated at 200° C. for 50 minutes
Method: To test the stable ion-pair hypothesis, TGA of PTSA, midazolam, and their combined salt pair were heated at 200° C. for 50 minutes and their decomposition rates were compared (FIG. 13).

[2] = LC-MS analysis of the TGA samples for thermal isomerization to isomidazolam; format: physicochemical; conditions: LC-MS of sample after TGA at 200° C. for 50 minutes
[3] = pH titration of the carboxylate with mother liquor analysis (solubility versus pH); format: physicochemical; conditions: pH values below 1, methanol/KOH saponification mixture titrated with acid
Method: Saponification of midazolam ethyl ester to the carboxylic acid was performed both in batch and flow, but poor solubility limited the throughput of a continuous manufacturing approach. Therefore, the reaction was run as a batch in a methanol/KOH solution. Much of the R&D on this process step revolved around the reactive crystallization of the carboxylic acid product. […] An initial screen was performed by titrating a batch of the carboxylate and analyzing the mother liquor at decreasing pH values to determine the pH value with the highest yield (FIG. 10).
The titration experiment determined that pH 5.5-6.0 would provide the highest yielding crystallization. At pH values lower than this, the solubility of the product increases again until it is fully soluble at pH values below 1. […] This was an attractive development as the ring open form had been previously reported to provide a purer decarboxylation. The ring quickly closes in neutral solvent, and the diastereomeric methylene resonances appear clearly between 4-6 ppm. […] To test this hypothesis, we performed […] batch reactions and crystallization at pH 1, and 5.5. The solid products were characterized by thermogravimetric analysis and ^1H NMR spectroscopy (FIGS. 11A and 11B).

| Molecule | weight remaining of starting sample (TGA) [1] | isomidazolam formed in TGA sample [2] | solubility of the product [3] | weight remaining (TGA) ([1]; heated at 200° C., within 40 minutes of heating) |
| --- | --- | --- | --- | --- |
| 8-chloro-6-(2-fluorophenyl)-1-methyl-4H-imidazo[1,5-a][1,4]benzodiazopine [Midazolam, reference compound] | 65 weight % | 12 % LCAP | – | – |
| Cc1nc(C(=O)O)c2n1-c1ccc(Cl)cc1C(c1ccccc1F)=NC2 [Midazolam carboxylic acid, 8-chloro-6-(2-fluorophenyl)-1-methyl-4H-imidazo[1,5-a][1,4]benzodiazopine-3-carboxylic acid] | – | – | fully soluble | – |
| Cc1ccc(S(=O)(=O)O)cc1 [PTSA, para-toluenesulfonic acid] | – | – | – | ~10 weight % |
| Cc1ccc(S(=O)(=O)O)cc1.Cc1ncc2n1-c1ccc(Cl)cc1C(c1ccccc1F)=NC2 [midazolam:PTSA pair] | 90 weight % | 1 % LCAP | – | – |
